In patent US20230364029A1, “POLYMORPHIC FORMS OF (R)-2-HYDROXY-2-METHYL-4-(2,4,5-TRIMETHYL-3,6-DIOXOCYCLOHEXA-1,4-DIENYL)BUTANAMIDE” (PTC THERAPEUTICS, INC., priority 2014, published 2023):
In brackets after ≈: the same amount, converted by molar mass.

Legend:
Format in all cases: physicochemical
[1] = Aqueous solubility (HPLC); conditions: water, ambient conditions, 24 hours of equilibration
Experimental: Aqueous solubility of Patterns A, B, C, E and F was performed using an Agilent HPLC system. Approximately 10-20 mg of each form was charged to a 2 mL glass vial loaded with a magnetic stir bar and added 2 mL of water. The samples were allowed to stir overnight at ambient conditions. Following 24 hours of equilibration the samples were centrifuged and decanted into HPLC vials. A calibration curve was generated based on Pattern A in MeOH at 0.05, 0.1, 0.5 and 1.0 mg/mL. Following injection of the standard curve, the samples were run as is.

[2] = 7 day elevated aqueous humidity studies; conditions: for Visual Observations 1 day / Visual Observations 7 day / XRPD [Pattern] 7 day: > 95 %RH at Ambient; for XRPD [Pattern] 7 day: form after 7 days; for Stability to elevated humidity: Example 8, summary statement
Experimental: 7 day elevated aqueous humidity experiments were performed on all Patterns A, B, C, D, E and F at ambient conditions at > 95%RH (Table 17). Approximately 30 mg of each pattern was weighed into a 4 ml glass vial. The uncovered 4 ml vial was inserted into a 20 ml scintillation vial half filled with water and capped. Following 24 hours of equilibration, visual inspection was performed to check for changes in physical appearance, however no change was observed.

[3] = Moisture sorption analysis; conditions: for XRPD following moisture sorption analysis: after 0-95% RH cycles at 25° C.; for Hygroscopicity: moisture sorption, 0-95% RH cycles; for Hygroscopicity / Water adsorbed / Hysteresis upon desorption: 25° C.; for Water adsorbed: at 95 %RH; for Hysteresis upon desorption: moisture sorption-desorption
Experimental: Moisture sorption analysis of the starting material was performed by equilibrating the sample at 25° C. and 50% RH to simulate ambient lab conditions. Humidity then decreased to 0% RH, increased from 0 to 95% RH, reduced from 95 to 0% RH, increased from 0 to 95 %RH and then decreased from 95 to 50% RH. Each point represents the estimated asymptotic weight for each humidity or weight. […] No hysteresis was observed upon desorption (FIG. 14).
Moisture sorption analysis of Pattern E (from the 300 mg scale lot) was performed by equilibrating the sample at 25° C. and 50% RH to simulate ambient lab conditions. Humidity was then decreased to 0% RH, increased from 0 to 95% RH, reduced from 95 to 0% RH, increased from 0 to 95 %RH and then decreased from 95 to 50% RH. Each point represents the estimated asymptotic weight for each humidity or weight. […] No hysteresis was observed upon desorption (FIG. 19).
Moisture sorption analysis of Pattern C (300 mg lot) was performed by equilibrating the sample at 25° C. and 50% RH to simulate ambient lab conditions. Humidity was then decreased to 0% RH, increased from 0 to 95% RH, reduced from 95 to 0% RH, increased from 0 to 95%RH and then decreased from 95 to 50% RH. Each point represents the estimated asymptotic weight for each humidity or weight. […] This increased the total water to about 6% which is the water content of mono-hydrate. However, upon reducing the relative humidity, the solid lost its water. Therefore this could be a channel hydrate. No hysteresis was observed upon desorption (FIG. 24).
Moisture sorption analysis of Pattern B (300 mg lot) was performed by equilibrating the sample at 25° C. and 50% RH to simulate ambient lab conditions. Humidity then decreased to 0% RH, increased from 0 to 95% RH, reduced from 95 to 0% RH, increased from 0 to 95 %RH and then decreased from 95 to 50% RH. Each point represents the estimated asymptotic weight for each humidity or weight. […] The major weight loss at the beginning was due to loss of solvent.
Moisture sorption analysis of Pattern F (from Example 6) was performed by equilibrating the sample at 25° C. and 50% RH to simulate ambient lab conditions. Humidity was then decreased to 0% RH, increased from 0 to 95% RH, reduced from 95 to 0% RH, increased from 0 to 95 %RH and then decreased from 95 to 50% RH. Each point represents the estimated asymptotic weight for each humidity or weight. […] The major weight loss at the beginning is due to loss of solvent.

Compound | Solubility (aqueous) [1] [µg/mL] | Visual Observations 1 day [2] | Visual Observations 7 day [2] | XRPD [Pattern] 7 day [2] | XRPD [Pattern] 7 day ([2]; listed as B) | XRPD following moisture sorption analysis [3] | Hygroscopicity [3] | Hygroscopicity ([3]; listed as Form IV) | XRPD [Pattern] 7 day ([2]; listed as C) | Stability to elevated humidity [2] | Total water after adsorption ([3]; at 95%RH) | Water adsorbed [3] [%] | Hysteresis upon desorption [3] | XRPD [Pattern] 7 day ([2]; listed as D) | XRPD [Pattern] 7 day ([2]; listed as E) | Hygroscopicity ([3]; listed as Form II) | XRPD [Pattern] 7 day ([2]; listed as F) | Hygroscopicity ([3]; listed as Form VI)
CC1=C(C)C(=O)C(CC[C@@](C)(O)C(N)=O)=C(C)C1=O [Pattern B, (R)-2-hydroxy-2-methyl-4-(2,4,5-trimethyl-3,6-dioxocyclohexa-1,4-dienyl)butanamide] | 1300 (≈ 4.9 mM) | Yellow solids | Yellow solids | mixture of Patterns A/B | Crystalline [Mixture of Patterns A/B] | consistent with Pattern A | non-hygroscopic | non-hygroscopic |  |  |  |  |  |  |  |  |  | 
CC1=C(C)C(=O)C(CC[C@@](C)(O)C(N)=O)=C(C)C1=O [Pattern C, (R)-2-hydroxy-2-methyl-4-(2,4,5-trimethyl-3,6-dioxocyclohexa-1,4-dienyl)butanamide] | 1320 (≈ 4.98 mM) | Yellow solids | Yellow solids | no change in form |  | consistent with Pattern C | slightly hygroscopic |  | Crystalline [Pattern C] | stability to elevated humidity | about 6% | 2 | No hysteresis |  |  |  |  | 
CC1=C(C)C(=O)C(CC[C@@](C)(O)C(N)=O)=C(C)C1=O [Pattern D, (R)-2-hydroxy-2-methyl-4-(2,4,5-trimethyl-3,6-dioxocyclohexa-1,4-dienyl)butanamide] |  | Yellow solids | Yellow solids | mixture of Patterns D/B |  |  |  |  |  |  |  |  |  | Crystalline [Mixture of Patterns D/B] |  |  |  | 
CC1=C(C)C(=O)C(CC[C@@](C)(O)C(N)=O)=C(C)C1=O [Pattern E, (R)-2-hydroxy-2-methyl-4-(2,4,5-trimethyl-3,6-dioxocyclohexa-1,4-dienyl)butanamide] | 1320 (≈ 4.98 mM) | Yellow solids | Yellow solids | no change in form |  | consistent with Pattern E | non-hygroscopic |  |  | stability to elevated humidity |  | 0.2 | No hysteresis |  | Crystalline [Pattern E] | non-hygroscopic |  | 
CC1=C(C)C(=O)C(CC[C@@](C)(O)C(N)=O)=C(C)C1=O [Pattern F, (R)-2-hydroxy-2-methyl-4-(2,4,5-trimethyl-3,6-dioxocyclohexa-1,4-dienyl)butanamide] | 1360 (≈ 5.13 mM) | Yellow solids | Yellow solids | converted to Pattern E |  | consistent with Pattern E | non-hygroscopic |  |  |  |  |  |  |  |  |  | Crystalline [Pattern E] | non-hygroscopic
